Data as given in PMC4747340, “A new class of small molecule estrogen receptor-alpha antagonists that overcome anti-estrogen resistance” (Oncotarget, 2015).

How the values were obtained:
Experiment in all cases: ER mutation analysis, ERE-TK-Luc reporter in transfected MDA-MB-231 cells
Format in all cases: cell-based
[1] = molecular target: T1, ER Glu353Ala (Homo sapiens, UniProt P03372, E353A); settings: MDA-MB-231 transfected with mutant ER, E2 10 nM, 24 hr
T1 construct: expressed in transfected cells; host or cells: MDA-MB-231
T1 sequence (P03372 whole entry E353A): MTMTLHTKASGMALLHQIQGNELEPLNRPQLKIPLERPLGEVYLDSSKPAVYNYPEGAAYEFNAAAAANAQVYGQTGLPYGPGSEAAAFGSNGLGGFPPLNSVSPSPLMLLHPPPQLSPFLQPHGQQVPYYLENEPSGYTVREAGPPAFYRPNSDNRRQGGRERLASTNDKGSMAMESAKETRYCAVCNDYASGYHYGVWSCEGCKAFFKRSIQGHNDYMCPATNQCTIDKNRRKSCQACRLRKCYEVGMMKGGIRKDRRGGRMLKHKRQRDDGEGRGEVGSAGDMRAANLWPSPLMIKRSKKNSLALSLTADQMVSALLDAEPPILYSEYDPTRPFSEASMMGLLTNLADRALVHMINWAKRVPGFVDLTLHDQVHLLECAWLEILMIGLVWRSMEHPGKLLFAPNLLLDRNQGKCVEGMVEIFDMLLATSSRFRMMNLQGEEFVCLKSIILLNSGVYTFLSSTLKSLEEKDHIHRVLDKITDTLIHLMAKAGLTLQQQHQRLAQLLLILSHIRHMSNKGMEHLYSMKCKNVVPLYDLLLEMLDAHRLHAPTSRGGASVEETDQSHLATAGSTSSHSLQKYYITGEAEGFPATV
Description: (§1) B., C. Panels B and C show a comparison of the ER interaction of one of our original series of compounds (A7) (B) and one new compounds (48693-K/1) (C). ER is represented by gray ribbon and its residues interacting with the compounds are drawn with wireframe and labeled. […] The hydrogen bond interaction with ARG 394 is shown in green line. […] The cells were harvested for luciferase assays. Luciferase values are expressed as a percent of the +E2 vehicle control and are means ± SEMs of four wells. The data shown in panels D to G are representative of three independent experiments.
(§2) Subconfluent cells in 24-well dishes were transfected overnight with 0.25 μg of each indicated vector plus the ERE-TK-Luc reporter in serum-free DMEM containing Lipofectamine2000 (Life Technologies, Washington, DC). Total transfected DNA was kept constant by addition of control vector. The cells were washed, incubated in phenol red-free DMEM containing 5% charcoal-stripped serum (obtained from the Tissue Culture Shared Resource) (0.2 ml/well) ± E2 (10 nM) ± the indicated compound for 24-hr, and harvested for luciferase assays. For each assay condition was tested in quadrupicate. To monitor the transfection efficiency, cultures were co-transfected with plasmid pRSV-β-gal (Promega, Madison, WI) to visualize transfected cells by X-gal staining.

[2] = molecular target: T2, ER Ile386Ala+Leu387Ala (Homo sapiens, UniProt P03372, I386A/L387A); settings: MDA-MB-231 transfected with mutant ER, E2 10 nM, 24 hr
T2 construct: expressed in transfected cells; host or cells: MDA-MB-231
T2 sequence (P03372 whole entry I386A/L387A): as the sequence (P03372 whole entry E353A) above, with A353E, I386A, L387A counted along it
Description: as §1, §2

[3] = molecular target: T3, ER Pro324Ala (Homo sapiens, UniProt P03372, P324A); settings: MDA-MB-231 transfected with mutant ER, E2 10 nM, 24 hr
T3 construct: expressed in transfected cells; host or cells: MDA-MB-231
T3 sequence (P03372 whole entry P324A): as the sequence (P03372 whole entry E353A) above, with P324A, A353E counted along it
Description: as §1, §2

[4] = molecular target: T4, ER Ile386Ala (Homo sapiens, UniProt P03372, I386A); settings: MDA-MB-231 transfected with mutant ER, E2 10 nM, 24 hr
T4 construct: expressed in transfected cells; host or cells: MDA-MB-231
T4 sequence (P03372 whole entry I386A): as the sequence (P03372 whole entry E353A) above, with A353E, I386A counted along it
Description: as §1, §2

[5] = molecular target: T5, ER Trp393Ala (Homo sapiens, UniProt P03372, W393A); settings: MDA-MB-231 transfected with mutant ER, E2 10 nM, 24 hr
T5 construct: expressed in transfected cells; host or cells: MDA-MB-231
T5 sequence (P03372 whole entry W393A): as the sequence (P03372 whole entry E353A) above, with A353E, W393A counted along it
Description: as §1, §2

[6] = molecular target: T6, ER Leu327Ala (Homo sapiens, UniProt P03372, L327A); settings: MDA-MB-231 transfected with mutant ER, E2 10 nM, 24 hr
T6 construct: expressed in transfected cells; host or cells: MDA-MB-231
T6 sequence (P03372 whole entry L327A): as the sequence (P03372 whole entry E353A) above, with L327A, A353E counted along it
Description: as §1, §2

[7] = molecular target: T7, Wild-type ER (Homo sapiens, UniProt P03372); settings: MDA-MB-231 transfected with wtER, E2 10 nM, 24 hr
T7 construct: expressed in transfected cells; host or cells: MDA-MB-231
T7 sequence (P03372 whole entry): as the sequence (P03372 whole entry E353A) above, with A353E counted along it
Description: as §1, §2

O=C(CC(c1ccccc1)N1CCCCC1)c1ccccc1 (stereo not shown) [35446-L/1, 1,3-diphenyl-3-(piperidin-1-yl)propan-1-one]
IC50 [1]: > 10 µM | IC50 [2]: > 15 µM | IC50 [3]: > 15 µM | IC50 [4]: 4 µM | IC50 [5]: > 15 µM | IC50 [6]: 0.9 µM | IC50 [7]: 0.8 µM
